pIC50: −log10 of the molar value. Where a name gives a salt, the structure may show the parent alone.
Key:
KRAS_WT and SOS1 = target: T1, KRAS_WT and SOS1 (Homo sapiens, UniProt P01116); assay: Inhibition of KRAS_WT/SOS1 binding (Cisbio binding kit, 665/615 ratio), Effect Embodiment C; details: read-out: GTP-KRAS-WT:SOS1 IC50
T1 construct: purchased
Method in brief: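 Compounds tested as 3-fold, 11-point dilutions in duplicate at 1% DMSO final against the KRAS_WT/SOS1 binding system. IC50 derived by nonlinear regression fit.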

KRAS-G12D and SOS1 = target: T2, KRAS-G12D and SOS1 (Homo sapiens, UniProt P01116, G12D); assay: Inhibition of KRAS-G12D/SOS1 binding (Cisbio binding kit, 665/615 ratio), Effect Embodiment A; details: read-out: GTP-KRAS-G12D:SOS1 IC50
T2 construct: purchased
T2 sequence (P01116 1-188 isoform P01116-2 G12D): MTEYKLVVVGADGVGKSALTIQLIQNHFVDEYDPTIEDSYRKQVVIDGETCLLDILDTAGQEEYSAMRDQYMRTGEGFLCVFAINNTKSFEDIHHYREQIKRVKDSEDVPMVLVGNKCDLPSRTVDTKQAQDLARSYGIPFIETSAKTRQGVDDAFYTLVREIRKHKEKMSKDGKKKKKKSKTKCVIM
Method in brief: (§1)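 Compounds are tested over eleven threefold dilution steps in duplicate, with final DMSO at 1%.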

KRAS_G12D and cRAF = target: T3, KRAS_G12D and cRAF (Homo sapiens, UniProt P01116, G12D); assay: Inhibition of KRAS_G12D/cRAF binding (Cisbio binding kit, 665/615 ratio), Effect Embodiment B; details: read-out: GTP-KRAS-G12D:CRAF IC50
T3 construct: purchased
T3 sequence (P01116 1-188 isoform P01116-2 G12D): as above
Method in brief: as §1

T1 sequence (P01116 1-188 isoform P01116-2): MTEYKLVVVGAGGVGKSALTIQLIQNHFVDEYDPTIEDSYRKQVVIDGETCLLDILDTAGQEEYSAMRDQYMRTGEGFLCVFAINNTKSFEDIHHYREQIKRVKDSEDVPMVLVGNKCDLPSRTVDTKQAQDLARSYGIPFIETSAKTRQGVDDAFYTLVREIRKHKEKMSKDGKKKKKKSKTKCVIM

| SMILES | pIC50 (KRAS_WT and SOS1) | pIC50 (KRAS-G12D and SOS1) | pIC50 (KRAS_G12D and cRAF) |
| --- | --- | --- | --- |
| CCc1c(F)ccc2cc(O)cc(-c3c(F)cc4c(N5CC6CCC(C5)N6)nc(OCCCN5C[C@@H](C)O[C@@H](C)C5)nc4c3F)c12 (single isomer, unassigned) [Compound 250a, (S or R)-4-(4-((1R,5S)-3,8-diazacyclo[3.2.1]octan-3-yl)-2-(3-((2R,6S)-2,6-dimethylmorpholinyl)propoxy)-6,8-difluoroquinazolin-7-yl)-5-ethyl-6-fluoronaphthalen-2-ol formate] | 7.12 | 8.07 | 7.84 |
| C#Cc1c(F)ccc2cc(O)cc(-c3c(Cl)cc4c(N5CC6CCC(C5)N6)nc(OCCCN5C6CCC5COC6)nc4c3F)c12 (single isomer, unassigned) [Compound 255b, (4R or 4S)-4-(2-(3-(3-oxa-8-azabicyclo[3.2.1]octan-8-yl)propoxy)-4-(1R,5S)-3,8-diazabicyclo[3.2.1]octan-3-yl)-6-chloro-8-fluoroquinazolin-7-yl)-5-ethynyl-6-fluoronaphthalen-2-ol diformate] | 7.12 | 8.36 | 7.88 |
| CO[C@@H](COc1nc(N2CC3CCC(C2)N3)c2cc(Cl)c(-c3cc(O)cc4ccccc34)c(F)c2n1)CN1C2CCCC1CC2 (single isomer, unassigned) [Compound 257, (4S or 4R)-4-(2-((2R)-3-(8-azabicyclo[3.2.1]octan-8-yl)-2-methoxypropoxy)-4-((1R,5S)-3,8-diazabicyclo[3.2.1]octan-3-yl)-6-chloro-8-fluoroquinazolin-7-yl)naphthalen-2-ol formate] | < 5.00 | 7.19 | 6.53 |
| CO[C@H]1CCN(CCCOc2nc(N3CC4CCC(C3)N4)c3cc(Cl)c(-c4cc(O)cc5ccccc45)c(F)c3n2)[C@H](C)C1 (single isomer, unassigned) [Compound 258, 4-((S or R)-4-((1R,5S)-3,8-diazacyclo[3.2.1]octan-3-yl)-6-chloro-8-fluoro-2-(3-((2R,4S)-4-methoxy-2-methylpiperidin-1-yl)propoxy)quinazolin-7-yl)naphthalen-2-ol diformate] | 5.21 | 7.57 | 6.66 |
| Oc1cc(-c2c(Cl)cc3c(N4CC5CCC(C4)N5)nc(OCCCN4CCC5(CCOCC5)C4)nc3c2F)c2ccccc2c1 (single isomer, unassigned) [Compound 259, 4-((S or R)-2-(3-(8-oxa-2-azaspiro[4.5]decan-2-yl)propoxy)-4-((1R,5S)-3,8-diazacyclo[3.2.1]octan-3-yl)-6-chloro-8-fluoroquinazolin-7-yl)naphthalen-2-ol formate] | 5.83 | 7.60 | 6.83 |
| Oc1cc(-c2c(Cl)cc3c(N4CC5CCC(C4)N5)nc(OCC45CCN(CC4)CC5)nc3c2F)c2ccccc2c1 (single isomer, unassigned) [Compound 260, 4-((S or R)-4-((1R,5S)-3,8-diazacyclo[3.2.1]octan-3-yl)-6-chloro-8-fluoro-2-(quinin-4-ylmethoxy)quinazolin-7-yl)naphthalen-2-ol diformate] | 5.35 | 7.59 | 6.80 |
| Oc1cc(-c2c(Cl)cc3c(N4CC5CCC(C4)N5)nc(OCCCN4CCC5(CCOC5)CC4)nc3c2F)c2ccccc2c1 (single isomer, unassigned) [Compound 261, 4-((S or R)-2-(3-(2-oxa-8-azaspiro[4.5]decan-8-yl)propoxy)-4-((1R,5S)-3,8-diazacyclo[3.2.1]octan-3-yl)-6-chloro-8-fluoroquinazolin-7-yl)naphthalen-2-ol diformate] | 5.97 | 7.73 | 6.99 |
| Oc1cc(-c2c(Cl)cc3c(N4CC5CCC(C4)N5)nc(OCCCN4CCC5(CC4)COC5)nc3c2F)c2ccccc2c1 (single isomer, unassigned) [Compound 262, 4-((S or R)-2-(3-(2-oxa-7-azaspiro[3.5]nonan-7-yl)propoxy)-4-((1R,5S)-3,8-diazacyclo[3.2.1]octan-3-yl)-6-chloro-8-fluoroquinazolin-7-yl)naphthalen-2-ol diformate] | 5.78 | 7.61 | 6.85 |
| Oc1cc(-c2c(Cl)cc3c(N4CC5CCC(C4)N5)nc(OCCCN4CC5(CCOC5)C4)nc3c2F)c2ccccc2c1 (single isomer, unassigned) [Compound 263, 4-((S or R)-2-(3-(6-oxa-2-azaspiro[3.4]octan-2-yl)propoxy)-4-((1R,5S)-3,8-diazacyclo[3.2.1]octan-3-yl)-6-chloro-8-fluoroquinazolin-7-yl)naphthalen-2-ol formate] | 6.06 | 7.64 | 6.93 |
| Oc1cc(-c2c(Cl)cc3c(N4CC5CCC(C4)N5)nc(OCC4CCC5COCCN5C4)nc3c2F)c2ccccc2c1 (single isomer, unassigned) [Compound 264a, 4-((S or R)-4-((1R,5S)-3,8-diazacyclo[3.2.1]octan-3-yl)-6-chloro-8-fluoro-2-((7S or 7R, 9aS or 9aR)-octahydropyridine[2,1-c][1,4]oxazin-7-yl)methoxy)quinazolin-7-yl)naphthalen-2-ol formate] | 6.47 | 7.93 | 7.49 |
| Oc1cc(-c2c(Cl)cc3c(N4CC5CCC(C4)N5)nc(OCC4CCC5COCCN5C4)nc3c2F)c2ccccc2c1 (single isomer, unassigned) [Compound 264b, 4-((R or S)-4-((1R,5S)-3,8-diazacyclo[3.2.1]octan-3-yl)-6-chloro-8-fluoro-2-((7R or 7S, 9aR or 9aS)-octahydropyridine[2,1-c][1,4]oxazin-7-yl)methoxy)quinazolin-7-yl)naphthalen-2-ol formate] | 6.71 | 7.71 | 7.00 |
| CC1OCCN(CCCOc2nc(N3CC4CCC(C3)N4)c3cc(Cl)c(-c4cc(O)cc5ccccc45)c(F)c3n2)C1C (single isomer, unassigned) [Compound 265a, 4-((R or S)-4-((1R,5S)-3,8-diazabicyclo[3.2.1]octan-3-yl)-6-chloro-2-(3-((2R or 2S, 3S or 3R)-2,3-dimethylmorpholinyl)propoxy)-8-fluoroquinazolin-7-yl)naphthalen-2-ol diformate] | 5.23 | 7.04 | 6.54 |
| CC1OCCN(CCCOc2nc(N3CC4CCC(C3)N4)c3cc(Cl)c(-c4cc(O)cc5ccccc45)c(F)c3n2)C1C (single isomer, unassigned) [Compound 265b, 4-((R or S)-4-((1R,5S)-3,8-diazabicyclo[3.2.1]octan-3-yl)-6-chloro-2-(3-((2S or 2R, 3R or 3S)-2,3-dimethylmorpholinyl)propoxy)-8-fluoroquinazolin-7-yl)naphthalen-2-ol diformate] | 5.10 | 7.22 | 6.70 |
| CC1OCCN(CCCOc2nc(N3CC4CCC(C3)N4)c3cc(Cl)c(-c4cc(O)cc5ccccc45)c(F)c3n2)C1C (single isomer, unassigned) [Compound 265c, 4-((R or S)-4-((1R,5S)-3,8-diazabicyclo[3.2.1]octan-3-yl)-6-chloro-2-(3-((2S or 2R, 3S or 3R)-(2,3-dimethylmorpholinyl)propoxy)-8-fluoroquinazolin-7-yl)naphthalen-2-ol diformate] | 5.89 | 7.30 | 6.87 |

— US20230365563A1, “QUINAZOLINE COMPOUND AND APPLICATION THEREOF” (SHANGHAI PHARMACEUTICALS HOLDING CO., LTD., priority 2020, published 2023)
